Reference: patent publication US20090053721A1, “VOLTAGE-GATED ION CHANNEL MUTANTS FOR USE IN IDENTIFYING ION CHANNEL MODULATING COMPOUNDS” (CARDIOME PHARMA CORP., priority 2007, published 2009)
“And” between values parts separate entries of the source, which are not always exact repeats. Equal values may be shown once. Where a name gives a salt, the structure may show the parent alone.

What was measured:
atrial fibrillation = conditions: intravenous; within 90 min of infusion; phase II and III trials; cited from earlier work
Kv1.5 WT channel = molecular target: T1, Kv1.5 WT channel (Homo sapiens, UniProt P22460); experiment: Whole-cell patch-clamp block of wild-type Kv1.5 current in HEK293 cells; format: cell-based
T1 construct: subcloned as a fragment back into full-length Kv1.5; expressed in transfected cells
T1 sequence (P22460 whole entry, the tested form may be a part): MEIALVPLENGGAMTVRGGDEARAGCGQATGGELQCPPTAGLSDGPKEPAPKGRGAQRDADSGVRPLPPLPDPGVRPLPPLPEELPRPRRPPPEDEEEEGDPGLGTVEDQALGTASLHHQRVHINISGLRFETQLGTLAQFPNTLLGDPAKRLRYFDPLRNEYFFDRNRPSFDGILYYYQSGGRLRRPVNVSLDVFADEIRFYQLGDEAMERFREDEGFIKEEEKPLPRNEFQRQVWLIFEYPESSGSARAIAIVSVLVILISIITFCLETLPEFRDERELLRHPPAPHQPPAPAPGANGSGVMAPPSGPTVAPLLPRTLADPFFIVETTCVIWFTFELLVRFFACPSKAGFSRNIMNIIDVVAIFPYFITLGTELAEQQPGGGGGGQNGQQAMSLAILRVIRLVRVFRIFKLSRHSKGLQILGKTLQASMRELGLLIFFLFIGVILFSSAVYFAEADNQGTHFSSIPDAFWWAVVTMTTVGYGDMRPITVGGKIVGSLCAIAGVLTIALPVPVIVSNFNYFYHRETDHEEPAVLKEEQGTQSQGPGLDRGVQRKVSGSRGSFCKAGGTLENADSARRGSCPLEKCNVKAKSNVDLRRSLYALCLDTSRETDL
Description: (§1) Stable lines of HEK293 cells expressing Kv1.5, or transient transfection of mutant Kv1.5 channels were used in all experiments. Primers to generate mutant channels were synthesized by Integrated DNA Technologies, Inc. (Coralville, Iowa, USA), and mutants were generated using the Stratagene Quikchange kit (Stratagene, Calif., USA). The presence of the mutation was confirmed by DNA sequencing, and because of the size of the WT Kv1.5 clone, only the sequenced region harboring the targeted nucleotides was subcloned as a fragment back into full-length Kv1.5. Transient transfections were performed with HEK 293 cells plated at 20-30% confluency on sterile coverslips in 25 mm Petri dishes one day prior to transfection. 0.1-4 μg of ion channel DNA was incubated with 1 μg of eGFP DNA (to enable detection of transfected cells) and 2 μl of lipofectamine 2000 (Invitrogen) in 100 μl of Opti-MEM. This was added to the cells for overnight incubation after washing the media with 900 μl of MEM with 10% FBS.
(§2) The cells were grown in Minimal Essential Medium (MEM) at 37° C. in an air/5% CO2 incubator. Media contained 10% bovine serum and 0.5 mg/ml geneticin for stable lines. On the day before recording, stably-expressing cells were washed with MEM, treated with trypsin/EGTA for one minute and plated on 25 mm^2 coverslips. All cell culture supplies were obtained from Invitrogen (Mississauga, ON, Canada).
Control bath solution contained (in mM): 5 KCl, 135 NaCl, 2.8 sodium acetate, 1 MgCl2, 10 HEPES and 1 CaCl2, adjusted to pH 7.4 with NaOH. Patch pipettes contained (in mM): 130 KCl, 5 EGTA, 1 MgCl2, 10 HEPES, 4 Na2ATP, and 0.1 GTP, adjusted to pH 7.2 with KOH. All chemicals used to make solutions were obtained from Sigma-Aldrich (Mississauga, ON, Canada). […] Flecamide (Sigma-Aldrich, lot number 094K4057) was prepared as a stock solution (100 mM) in 100% DMSO. DMSO concentrations for either drug never exceeded 0.1% v/v in the final experimental solutions.
Coverslips with adherent cells plated on the surface were placed in a superfusion chamber (volume 300 μl) containing the control bath solution at 22° C. Whole-cell current recording and analysis were carried out using an Axopatch 200B amplifier and pClamp10 software (Axon Instruments, CA, USA). Patch electrodes were pulled from thin-walled borosilicate glass (World Precision Instruments, FL, USA) on a horizontal micropipette puller (Sutter Instruments, CA, USA). […] Analogue capacity compensation and 80% series resistance compensation were used during whole cell measurements. […] To assess drug block, half-log escalating concentrations of drug were added to the flowing bath solution and current traces were recorded with 400 ms depolarizing pulses to +60 mV at a frequency of 0.1 Hz. […]

[1] = molecular target: T2, Kv1.5 A509G mutant channel (Homo sapiens, UniProt P22460, A509G); experiment: Whole-cell patch-clamp block of mutant Kv1.5 current in HEK293 cells; format: cell-based; conditions: 10 μM vernakalant
T2 construct: subcloned as a fragment back into full-length Kv1.5; expressed in transfected cells; host or cells: HEK293, transient transfection
T2 sequence (P22460 whole entry A509G, the tested form may be a part): as the sequence (P22460 whole entry, the tested form may be a part) above, with A509G counted along it
Description: as §1, §2
(§3) Control bath solution contained (in mM): 5 KCl, 135 NaCl, 2.8 sodium acetate, 1 MgCl2, 10 HEPES and 1 CaCl2, adjusted to pH 7.4 with NaOH. Patch pipettes contained (in mM): 130 KCl, 5 EGTA, 1 MgCl2, 10 HEPES, 4 Na2ATP, and 0.1 GTP, adjusted to pH 7.2 with KOH. […]
(§4) Coverslips with adherent cells plated on the surface were placed in a superfusion chamber (volume 300 μl) containing the control bath solution at 22° C. […] To assess drug block, half-log escalating concentrations of drug were added to the flowing bath solution and current traces were recorded with 400 ms depolarizing pulses to +60 mV at a frequency of 0.1 Hz. […]

[2] = molecular target: T3, Kv1.5 V512L mutant channel (Homo sapiens, UniProt P22460, V512L); experiment: as above; format: cell-based; conditions: 10 μM vernakalant
T3 construct: subcloned as a fragment back into full-length Kv1.5; expressed in transfected cells; host or cells: HEK293, transient transfection
T3 sequence (P22460 whole entry V512L, the tested form may be a part): as the sequence (P22460 whole entry, the tested form may be a part) above, with V512L counted along it
Description: as §1, §2, §3, §4

[3] = molecular target: T4, Kv1.5 V481L mutant channel (Homo sapiens, UniProt P22460, V481L); experiment: as above; format: cell-based; conditions: 10 μM vernakalant
T4 construct: subcloned as a fragment back into full-length Kv1.5; expressed in transfected cells; host or cells: HEK293, transient transfection
T4 sequence (P22460 whole entry V481L, the tested form may be a part): as the sequence (P22460 whole entry, the tested form may be a part) above, with V481L counted along it
Description: as §1, §2, §3, §4

[4] = molecular target: T5, Kv1.5 V505A mutant channel (Homo sapiens, UniProt P22460, V505A); experiment: Voltage-dependence of block (Woodhull fit), V505A Kv1.5; format: cell-based
T5 construct: subcloned as a fragment back into full-length Kv1.5; expressed in transfected cells; host or cells: HEK293, transient transfection
T5 sequence (P22460 whole entry V505A, the tested form may be a part): as the sequence (P22460 whole entry, the tested form may be a part) above, with V505A counted along it
Method: Coverslips with adherent cells plated on the surface were placed in a superfusion chamber (volume 300 μl) containing the control bath solution at 22° C. Whole-cell current recording and analysis were carried out using an Axopatch 200B amplifier and pClamp10 software (Axon Instruments, CA, USA). Patch electrodes were pulled from thin-walled borosilicate glass (World Precision Instruments, FL, USA) on a horizontal micropipette puller (Sutter Instruments, CA, USA). […] Analogue capacity compensation and 80% series resistance compensation were used during whole cell measurements. Membrane potentials were not corrected for junction potentials that arise between the pipette and bath solution. For Kv1.5 current recordings, a holding potential of −80 mV was used. Data were sampled at 10-20 kHz and filtered at 5 to 10 kHz. To assess drug block, half-log escalating concentrations of drug were added to the flowing bath solution and current traces were recorded with 400 ms depolarizing pulses to +60 mV at a frequency of 0.1 Hz.
f=[D]/([D]+Kd*e^−δzFE/RT)
where F, R, z and T have their usual meanings, δ represents the fractional electrical distance, i.e., the fraction of the transmembrane electrical field sensed by a single charge at the receptor site. […] The current amplitude (Idrug and Icontrol) was measured at the end of a 400 ms depolarization. […]

## COc1ccc(CCO[C@@H]2CCCC[C@H]2N2CC[C@@H](O)C2)cc1OC [Vernakalant, 3-Pyrrolidinol, 1-[(1R,2R)-2-[2-(3,4-dimethoxyphenyl)ethoxy]cyclohexyl]-,hydrochloride, (3R)]
Atrial fibrillation
  overall rate of conversion of AF to sinus rhythm: ~52%
Kv1.5 WT channel
  Hill coefficient: 1.00
Kv1.5 WT channel; 10 μM vernakalant
  reduction of outward current: approximately 50%
Kv1.5 WT channel; 10 μM vernakalant, −80 to +60 mV, 400 ms, 0.1 Hz
  Fractional Block ± SEM: 0.45 ± 0.03
[1]
  Fractional Block ± SEM: 0.33 ± 0.07
[2]
  Fractional Block ± SEM: 0.56 ± 0.04
[3]
  Fractional Block ± SEM: 0.36 ± 0.03

## O=C(NCC1CCCCN1)c1cc(OCC(F)(F)F)ccc1OCC(F)(F)F (stereo not drawn) [Flecainide]
[4]
  change in electrical distance versus WT: significant increase in distance
Kv1.5 WT channel; steady-state current, +60 mV
  IC50: 38.1 µM and 38 µM
